# Key:
# H^+ /K^+ ATPase = molecular target: T1, H^+ /K^+ ATPase (Sus scrofa, UniProt P19156); experiment: H^+ /K^+ ATPase Inhibitory Activity Assay; type: biochemical; conditions: pig stomach enzyme, 37° C., pH 6.2; for inhibition at 10 µg/mL: 10 μg/ml
# T1 construct: prepared from the stomach of pig; from tissue; host or cells: pig stomach
# Description: H^+ /K^+ ATPase Inhibitory Activity Assay
# The inhibitory activity was determined in the following manner using H^+ /K^+ ATPase prepared from the stomach of pig.
# H^+ /K^+ ATPase dilute solution (100 μl, 50 μg as protein) was added to PIPES-tris (pH 6.2) buffer solution (440 μl) containing 4 mM magnesium chloride and 20 mM potassium chloride. Further, 0.1% ethanol solution of nigericin (5 μl) was added. To the solution was added dimethyl sulfoxide (5 μl) and the mixture was incubated at 37° C. for 30 minutes. Then 10 mM PIPES-tris buffer solution (450 μl) containing 4 mM ATP disodium was added to initiate the reaction. 30 minutes later, 50% trichloroacetic acid (1 μl) was added to cease the reaction. The amount of phosphorus released in this reaction was determined by a color development determination at 800 nm according to D. Lebel, G. Poirier et al. method (Anal. Biochem. 85, 86-89, 1978), at which the reading of the absorbance is taken as C1. On the other hand, a similar determination was carried out in the absence of potassium chloride, at which the reading of the absorbance is taken as C2. The inhibitory activity was determined by a similar procedure as in the above reaction, but adding 5 μl of a dimethyl sulfoxide solution containing 1 to 20 mg/ml of the inhibiting substance (test compound), instead of dimethyl sulfoxide. In that case, the readings of the absorbance in the presence and absence of potassium chloride are taken as T1 and T2, respectively.
# % Inhibition (I) of the inhibiting substance (test compound) is calculated by the following equation.
# [1] = background statement; cited from earlier work
# T1 sequence (P19156 2-1034 limits assumed): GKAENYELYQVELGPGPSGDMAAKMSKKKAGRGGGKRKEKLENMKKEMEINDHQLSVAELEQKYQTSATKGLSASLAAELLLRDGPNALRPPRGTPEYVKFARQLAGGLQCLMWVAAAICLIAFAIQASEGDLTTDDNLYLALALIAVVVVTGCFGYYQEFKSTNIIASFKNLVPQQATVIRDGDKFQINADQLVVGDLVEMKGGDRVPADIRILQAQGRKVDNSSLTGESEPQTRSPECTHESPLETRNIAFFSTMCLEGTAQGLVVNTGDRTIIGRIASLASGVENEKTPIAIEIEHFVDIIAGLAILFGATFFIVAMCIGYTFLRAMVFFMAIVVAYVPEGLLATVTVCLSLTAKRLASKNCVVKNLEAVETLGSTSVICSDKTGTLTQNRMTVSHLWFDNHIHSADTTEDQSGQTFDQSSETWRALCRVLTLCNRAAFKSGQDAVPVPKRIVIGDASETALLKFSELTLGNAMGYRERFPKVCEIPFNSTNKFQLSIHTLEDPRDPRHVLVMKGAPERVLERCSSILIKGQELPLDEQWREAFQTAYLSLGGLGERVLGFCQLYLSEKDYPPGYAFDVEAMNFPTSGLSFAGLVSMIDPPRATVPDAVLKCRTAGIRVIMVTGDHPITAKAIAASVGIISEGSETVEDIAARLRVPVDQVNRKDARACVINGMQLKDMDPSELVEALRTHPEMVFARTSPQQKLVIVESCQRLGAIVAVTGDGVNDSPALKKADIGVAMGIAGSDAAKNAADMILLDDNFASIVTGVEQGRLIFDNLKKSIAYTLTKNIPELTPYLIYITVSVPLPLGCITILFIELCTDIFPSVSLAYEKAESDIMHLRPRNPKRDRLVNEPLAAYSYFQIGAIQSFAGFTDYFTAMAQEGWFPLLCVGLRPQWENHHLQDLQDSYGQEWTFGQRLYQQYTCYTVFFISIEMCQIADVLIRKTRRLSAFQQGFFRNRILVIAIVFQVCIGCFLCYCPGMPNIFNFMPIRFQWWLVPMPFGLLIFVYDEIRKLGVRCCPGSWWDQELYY
# T1 sequence (P18434 whole entry partner): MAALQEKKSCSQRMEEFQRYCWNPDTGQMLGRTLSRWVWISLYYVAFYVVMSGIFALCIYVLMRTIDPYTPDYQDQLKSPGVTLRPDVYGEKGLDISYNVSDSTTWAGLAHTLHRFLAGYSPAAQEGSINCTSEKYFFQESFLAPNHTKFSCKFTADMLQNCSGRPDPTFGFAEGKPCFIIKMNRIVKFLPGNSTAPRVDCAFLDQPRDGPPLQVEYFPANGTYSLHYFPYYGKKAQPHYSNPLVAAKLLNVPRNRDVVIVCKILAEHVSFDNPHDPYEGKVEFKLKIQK
SMILES,inhibition at 10 µg/mL (H^+ /K^+ ATPase),also measured
"CCN1CCC2c3cc(C4Cc5ccccc5CN(C(=O)OCc5ccccc5)CCc5c4[nH]c4ccccc54)ccc3N(CC)C2C1 (stereo not shown) [Example 10, 6-(13-Benzyloxycarbonyl-6,7,12,13,14,15-hexahydrobenzo[h]azecino[5,4-b]indole-6-yl)-2,9-diethyl-1,2,3,4,4a,9a-hexahydro-pyrido[3,4-b]indole]",–,inhibition at 5 µg/mL (H^+ /K^+ ATPase; 5 μg/ml): 98.4%
"CN1CC[C@H]2c3cc(C4CCCN(C(=O)OCc5ccccc5)CCc5c4[nH]c4ccccc54)ccc3N(C)[C@H]2C1 (stereo partly drawn) [Example 1, 4a,9a-cis-6-(3-Benzyloxycarbonyl-1,2,4,5,6,7-hexahydro-3H-azonino[5,4-b]indole-7-yl)-2,9-dimethyl-1,2,3,4,4a,9a-hexahydro-pyrido[3,4-b]indole]",54.9%,–
COc1ccc2[nH]c([S+]([O-])Cc3ncc(C)c(OC)c3C)nc2c1 (stereo not shown) [Omeprazole],–,occurrence of side effects [1]: occurrence of carcinoid
"CCN1CCC2c3cc(C4CCCN(C(=O)OCc5ccccc5)CCc5c4[nH]c4ccccc54)ccc3N(CC)C2C1 (stereo not shown) [Example 11, 6-(3-Benzyloxycarbonyl-1,2,4,5,6,7-hexahydro-3H-azonino[5,4-b]indole-7-yl)-2,9-diethyl-1,2,3,4,4a,9a-hexahydropyrido[3,4-b]indole]",97.5%,–
"CCOC(=O)N1CCCCC(c2ccc3c(c2)C2CCN(CC)CC2N3CC)c2[nH]c3ccccc3c2CC1 (stereo not shown) [Example 4, 6-(3-Ethoxycarbonyl-1,2,3,4,5,6,7,8-octahydro-azecino[5,4-b]indole-8-yl)-2,9-diethyl-1,2,3,4,4a,9a-hexahydropyrido[3,4-b]indole]",–,inhibition at 20 µg/mL (H^+ /K^+ ATPase; 20 μg/ml): 84%

# Second part, led by results:
inhibition at 10 µg/mL (H^+ /K^+ ATPase),SMILES,also measured
65.7%,"CCN1CCC2c3cc(C(OCc4ccccc4)c4c(CCN(Cc5ccccc5)Cc5ccccc5)c5ccccc5n4C)ccc3N(CC)C2C1 (stereo not shown) [Example 45, 6-(Benzyloxy-(3-(2-(N,N-dibenzylamino)ethyl)-1-methylindole-2-yl)-methyl)-2,9-diethyl-1,2,3,4,4a,9a-hexahydropyrido[3,4-b]indole]",–
80.8%,"CCN1CCC2c3cc(C(O)c4c(CCN(Cc5ccccc5)Cc5ccccc5)c5ccccc5n4S(=O)(=O)c4ccc(C)cc4)ccc3N(CC)C2C1 (stereo not shown) [Example 34, 2,9-Diethyl-6-(3-(2-dibenzylaminoethyl)-1-tosyl-indole-2-yl)hydroxymethyl-1,2,3,4,4a,9a-hexahydro-pyrido[3,4-b]indole]",–
78.8%,"CCN1CCC2c3cc(C(O)c4c(CCOCc5ccccc5)c5ccccc5n4Cc4ccccc4)ccc3N(CC)C2C1 (stereo not shown) [Example 39, 2,9-Diethyl-6-(3-(2-benzyloxyethyl)-1-benzyl-indole-2-yl)hydroxymethyl-1,2,3,4,4a,9a-hexahydro-pyrido[3,4-b]indole]",–
24.4%,CCN1CCC2c3cc(C(O)c4c(CCc5ccccn5)c5ccccc5n4S(=O)(=O)c4ccc(C)cc4)ccc3N(CC)C2C1 (stereo not shown) [Example 40],–
92.5%,"CCN1CCC2c3cc(C(C)c4[nH]c5ccccc5c4CCN(Cc4ccccc4)C(=O)OCc4ccccc4)ccc3N(CC)C2C1 (stereo not shown) [Example 19, 6-(1-(3-(2-Benzyl(benzyloxycarbonyl)aminoethyl)-indole-2-yl)ethyl)-2,9-diethyl-1,2,3,4,4a,9a-hexahydro-pyrido[3,4-b]indole]",–
